# Results reported in US20240228446A1, “PREPARATION METHOD FOR BICYCLIC COMPOUND AND APPLICATION AS ANTIFUNGAL AGENT” (priority 2021, published 2024).
# Tested on: Candida albicans ATCC MYA-2876
# Test: Minimal inhibitory concentration (MIC) test on fungal growth (CLSI M27, yeasts)
# Format: cell-based
# Conditions: lowest concentration inhibiting growth of yeast by 50%, 35° C., 24 hours, RPMI1640; for MIC: Candida albicans, read-out: MIC Candida albicans ATCC MYA-2876
# Protocol: • RPMI1640 medium: Brand: Gibco, article number: 31800-014 • Sabouraud dextrose agar (SDA): Brand: Hope Bio, article number: HB0253-81 • Voriconazole: Brand: Adamas, article number: 22105A • Amphotericin B: Brand: AbCam, article number: ab141199
# MIC test was conducted in accordance with the guidelines and requirements of CLSI M27 (for yeasts) and M38 (for Aspergillus).
# Strain preparation: The strains were inoculated 1 day in advance by streaking on SDA plates with glycerol strains stored at −80° C. The strains were cultured at 35° C. and 40 to 60% humidity for 18 to 24 hours. Streak inoculation of Aspergillus fumigatus and Cryptococcus neoformans was required to be done 3 days and 2 days in advance, respectively.
# Preparation of culture medium and compounds: The liquid culture medium RPMI was prepared with pure water, and 0.165 mol/L MOPS was added to adjust the pH to 7.0. The mixture was filtered with a 0.22 μm-membrane filter, sterilized, and stored at 4° C. (no more than 3 months). 0.85% physiological saline was sterilized at 121° C. for 30 min and then stored at room temperature (no more than 1 week). The compounds were dissolved in DMSO to 12.8 mg/mL and stored at −20° C.
# For yeast, 3 to 5 colonies were selected from the SDA plate on the day of testing and fully suspended in 5 mL of sterilized 0.85% physiological saline. The turbidity of the bacterial suspension was measured with a turbidimeter, and the turbidity was adjusted to approximately 0.2. The bacterial suspension was 50-fold and 20-fold (1000-fold in total) diluted in RPMI1640 medium, respectively, to serve as the inoculum. The final inoculum concentration was 500 to 2500 CFU/mL.
# The compound was diluted to the highest 800 μg/mL (or 400 μg/mL) with DMSO, and a 10-step 2-fold gradient dilution was performed, resulting in 11 concentrations. 2 μL of the gradient-diluted compound was transferred to the corresponding wells of a 96-well plate, and then 198 μL of the inoculum was transferred to the test plate. The plate was incubated at 35° C. for 24 hours (Aspergillus fumigatus and Cryptococcus neoformans were incubated for 48 and 72 hours, respectively).
# After the incubation, the growth of the fungi was visually observed. The lowest concentration of the compound that inhibited the growth of yeast by 50% (inhibited Aspergillus by 100%) was defined as the minimum inhibitory concentration (MIC, μg/mL). A magnifying glass or reading at OD530 nm could be used to assist in determining the MIC. Photos were taken of the test plates for record keeping.
MIC,MIC Candida albicans ATCC MYA-2876,Structure (SMILES)
0.016 µg/mL,–,O[C@H](CNc1ccc(C23CC(C(F)(F)[C@](O)(Cn4cnnn4)c4ccc(F)cc4F)(C2)C3)cn1)C(F)(F)F (relative stereo) [Compound 99A]
0.03 µg/mL,–,O[C@@H](CNc1ccc(C23CC(C(F)(F)[C@](O)(Cn4cnnn4)c4ccc(F)cc4F)(C2)C3)cn1)C(F)(F)F (relative stereo) [Compound 99B]
0.016 µg/mL,–,O[C@H](COc1ccc(C23CC(C(F)(F)[C@](O)(Cn4cnnn4)c4cc(F)ccc4F)(C2)C3)cc1)C(F)(F)F (relative stereo) [Compound 165A]
1 µg/mL,–,"O[C@](Cn1cncn1)(c1ccc(F)cc1F)C(F)(F)C12CC(C1)C2 (single isomer, unassigned) [Compound 10B]"
0.0078 µg/mL,–,"C[C@@](F)(C12CC(c3ccc(OCC(F)(F)F)cc3)(C1)C2)[C@](O)(Cn1cnnn1)c1ccc(F)cc1F (single isomer, unassigned) [Compound 18A]"
0.125 µg/mL,–,"CNC(=O)COc1ccc(C23CC(C(F)(F)[C@@](O)(Cn4cncn4)c4ccc(F)cc4F)(C2)C3)cc1 (single isomer, unassigned) [Compound 35B]"
0.5 µg/mL,–,COc1ccc(C23CC(C(F)(F)[C@@](O)(Cn4cnnn4)c4ccc(F)cc4F)(C2)C3)cc1 (stereo in doubt) [Compound 1B]
0.25 µg/mL,–,O[C@](Cn1cncn1)(c1ccc(F)cc1F)C(F)(F)C12CC(c3ccc(OCC(F)(F)F)cc3)(C1)C2 (stereo in doubt) [Compound 2B]
0.06 µg/mL,–,N[C@@](Cn1cnnn1)(c1ccc(F)cc1F)C(F)(F)C12CC(c3ccc(OCC(F)(F)F)cc3)(C1)C2 (stereo in doubt) [Compound 4A]
≤ 0.0039 µg/mL,–,N#Cc1ccc(C23CC(C[C@](O)(Cn4cncn4)c4ccc(F)cc4F)(C2)C3)cc1 (stereo in doubt) [Compound 91A]
0.016 µg/mL,–,O[C@@](Cn1cnnn1)(c1ccc(F)cc1F)C(F)(F)C12CC(c3cnc(OCC(F)(F)F)cn3)(C1)C2 (stereo in doubt) [Compound 107A]
0.016 µg/mL,–,O[C@@](Cn1ncnn1)(c1ccc(F)cc1F)C(F)(F)C12CC(c3cnc(OCC(F)(F)F)nc3)(C1)C2 (stereo in doubt) [Compound 110A]
0.016 µg/mL,–,OC1(COc2ccc(C34CC(C(F)(F)[C@](O)(Cn5cnnn5)c5ccc(F)cc5F)(C3)C4)cc2)COC1 (stereo in doubt) [Compound 150A]
1 µg/mL,–,O[C@](Cn1cnnn1)(c1ccc(F)cc1F)C(F)(F)C12CC(c3ccc(OCC(F)(F)F)cc3)(C1)C2 [Compound 3B]
0.016 µg/mL,–,OC(Cn1cncn1)(c1ccc(Cl)cc1F)C(F)(F)C12CC(c3ccc(OCC(F)(F)F)cc3)(C1)C2 (stereo not shown) [Compound 5]
–,0.06 µg/mL,O[C@@](Cn1cnnn1)(c1ccc(F)cc1F)C(F)(F)C12CC(C1)C2 [Compound 6A]
2 µg/mL,–,O[C@](Cn1cnnn1)(c1ccc(F)cc1F)C(F)(F)C12CC(C1)C2 [Compound 6B]
0.13 µg/mL,–,OC(Cn1cnnn1)(c1ccc(F)cc1F)C(F)(F)C12CC(C1)C2 (stereo not shown) [Compound 6]
–,0.0078 µg/mL,O[C@@](Cn1cnnn1)(c1ccc(Cl)cc1F)C(F)(F)C12CC(c3ccc(OCC(F)(F)F)cc3)(C1)C2 [Compound 7A]
0.016 µg/mL,–,OC(Cn1cnnn1)(c1ccc(Cl)cc1F)C(F)(F)C12CC(c3ccc(OCC(F)(F)F)cc3)(C1)C2 (stereo not shown) [Compound 7]
–,0.0078 µg/mL,N#Cc1ccc(C23CC(C(F)(F)[C@@](O)(Cn4cnnn4)c4ccc(F)cc4F)(C2)C3)cc1 [Compound 8A]
0.5 µg/mL,–,N#Cc1ccc(C23CC(C(F)(F)C(O)(Cn4cnnn4)c4ccc(F)cc4F)(C2)C3)cc1 (stereo not shown) [Compound 8]
–,0.06 µg/mL,O[C@](Cn1cnnn1)(c1cc(F)ccc1F)C(F)(F)C12CC(c3ccc(OCC(F)(F)F)cc3)(C1)C2 [Compound 9A]
0.03 µg/mL,–,OC(Cn1cnnn1)(c1cc(F)ccc1F)C(F)(F)C12CC(c3ccc(OCC(F)(F)F)cc3)(C1)C2 (stereo not shown) [Compound 9]
≤ 0.0039 µg/mL,–,OC(Cn1cncn1)(c1ccc(F)cc1F)C(F)(F)C12CC(C1)C2 (stereo not shown) [Compound 10]
0.03 µg/mL,–,OC(Cn1cnnn1)(c1ccc(F)cc1F)C(F)(F)C12CC(I)(C1)C2 (stereo not shown) [Compound 11]
–,0.016 µg/mL,CC12CC(C(F)(F)[C@](O)(Cn3cnnn3)c3ccc(F)cc3F)(C1)C2 [Compound 14A]

MIC,MIC Candida albicans ATCC MYA-2876,Structure (SMILES)
0.03 µg/mL,–,CC12CC(C(F)(F)C(O)(Cn3cnnn3)c3ccc(F)cc3F)(C1)C2 (stereo not shown) [Compound 14]
0.125 µg/mL,–,COc1ccc(C23CC(C(C)(F)C(O)(Cn4cnnn4)c4ccc(F)cc4F)(C2)C3)cc1 (stereo not shown) [Compound 17]
2 µg/mL,–,C[C@](F)(C12CC(c3ccc(OCC(F)(F)F)cc3)(C1)C2)[C@@](O)(Cn1cnnn1)c1ccc(F)cc1F [Compound 18B]
0.016 µg/mL,–,CC(F)(C12CC(c3ccc(OCC(F)(F)F)cc3)(C1)C2)C(O)(Cn1cnnn1)c1ccc(F)cc1F (stereo not shown) [Compound 18]
0.016 µg/mL,–,N#Cc1ccc(COc2ccc(C#CC34CC(C(F)(F)C(O)(Cn5cnnn5)c5ccc(F)cc5F)(C3)C4)cc2)cc1 (stereo not shown) [Compound 19]
0.13 µg/mL,–,Oc1ccc(C23CC(C(F)(F)C(O)(Cn4cnnn4)c4ccc(F)cc4F)(C2)C3)cc1 (stereo not shown) [Compound 20]
1 µg/mL,–,Oc1ccc(C23CC(C(F)(F)[C@@](O)(Cn4cncn4)c4ccc(F)cc4F)(C2)C3)cc1 [Compound 21B]
0.03 µg/mL,–,OC(Cn1cnnn1)(c1ccc(F)cc1F)C(F)(F)C12CC(c3ccc(OC(F)(F)F)cc3)(C1)C2 (stereo not shown) [Compound 24]
0.016 µg/mL,–,OC(Cn1cnnn1)(c1ccc(F)cc1F)C(F)(F)C12CC(c3ccc(OC(F)F)cc3)(C1)C2 (stereo not shown) [Compound 26]
2 µg/mL,–,N#Cc1ccc(C23CC(C(F)(F)[C@@](Cn4cncn4)(OP(=O)(O)O)c4ccc(F)cc4F)(C2)C3)cc1 [Compound 27A-P1]
0.5 µg/mL,–,N#Cc1ccc(C23CC(C(F)(F)[C@@](Cn4cncn4)(OCOP(=O)(O)O)c4ccc(F)cc4F)(C2)C3)cc1 [Compound 27A-P2]
0.06 µg/mL,–,N#Cc1ccc(C23CC(C(F)(F)[C@@](O)(Cn4cncn4)c4ccc(F)cc4F)(C2)C3)cc1 [Compound 27B]
0.25 µg/mL,–,N#Cc1ccc(C23CC(C(F)(F)[C@](O)(Cn4cnnn4)c4cc(F)ccc4F)(C2)C3)cc1 [Compound 28A]
0.016 µg/mL,–,N#Cc1ccc(C23CC(C(F)(F)C(O)(Cn4cnnn4)c4cc(F)ccc4F)(C2)C3)cc1 (stereo not shown) [Compound 28]
0.125 µg/mL,–,N#Cc1ccc(C23CC(C(F)(F)[C@@](O)(Cn4cncn4)c4cc(F)ccc4F)(C2)C3)cc1 [Compound 29B]
0.06 µg/mL,–,N#Cc1cccc(C23CC(C(F)(F)C(O)(Cn4cnnn4)c4ccc(F)cc4F)(C2)C3)c1 (stereo not shown) [Compound 30]
0.125 µg/mL,–,OC(Cn1cnnn1)(c1ccc(F)cc1F)C(F)(F)C12CC(c3cccc(OCC(F)(F)F)c3)(C1)C2 (stereo not shown) [Compound 31]
–,≤0.0039 µg/mL,O[C@@](Cn1cnnn1)(c1ccc(F)cc1F)C(F)(F)C12CC(c3ccc(Cl)cc3)(C1)C2 [Compound 32A]
0.06 µg/mL,–,O[C@](Cn1cnnn1)(c1ccc(F)cc1F)C(F)(F)C12CC(c3ccc(Cl)cc3)(C1)C2 [Compound 32B]
0.016 µg/mL,–,OC(Cn1cnnn1)(c1ccc(F)cc1F)C(F)(F)C12CC(c3ccc(Cl)cc3)(C1)C2 (stereo not shown) [Compound 32]
0.06 µg/mL,–,OC(Cn1cnnn1)(c1ccc(F)cc1F)C(F)(F)C12CC(c3ccc4c(c3)OCO4)(C1)C2 (stereo not shown) [Compound 33]
–,0.0078 µg/mL,CNC(=O)COc1ccc(C23CC(C(F)(F)[C@](O)(Cn4cnnn4)c4ccc(F)cc4F)(C2)C3)cc1 [Compound 34A]
0.016 µg/mL,–,CNC(=O)COc1ccc(C23CC(C(F)(F)C(O)(Cn4cnnn4)c4ccc(F)cc4F)(C2)C3)cc1 (stereo not shown) [Compound 34]
0.5 µg/mL,–,CN1CCC(O)(COc2ccc(C34CC(C(F)(F)C(O)(Cn5cnnn5)c5ccc(F)cc5F)(C3)C4)cc2)CC1 (stereo not shown) [Compound 38]
0.0078 µg/mL,–,OC1CC(Oc2ccc(C34CC(C(F)(F)C(O)(Cn5cnnn5)c5ccc(F)cc5F)(C3)C4)cc2)C1 (stereo not shown) [Compound 39]
0.06 µg/mL,–,CN1CC[C@@H](Oc2ccc(C34CC(C(F)(F)C(O)(Cn5cnnn5)c5ccc(F)cc5F)(C3)C4)cc2)C1 (stereo partly shown) [Compound 42]
0.03 µg/mL,–,CN1CC[C@H](Oc2ccc(C34CC(C(F)(F)C(O)(Cn5cnnn5)c5ccc(F)cc5F)(C3)C4)cc2)C1 (stereo partly shown) [Compound 43]

Structure (SMILES),MIC,MIC Candida albicans ATCC MYA-2876
"Oc1ccc(C23CC(C(F)(F)[C@](O)(Cn4cnnn4)c4ccc(F)cc4F)(C2)C3)cc1 (single isomer, unassigned) [Compound 20A]",–,0.06 µg/mL
